Test results published in patent US12617773B2, “Azetidin-3-ylmethanol derivatives as CCR6 receptor modulators” (Idorsia Pharmaceuticals Ltd, priority 2020, dated 2026).

The molecules below were run against T1, human CCR6 (Homo sapiens, UniProt P51684) (assay: FLIPR assay (inhibition of CCL20-induced calcium signal)). Conditions: HEK-293 cells expressing human CCR6; mean values where determined several times; read-out: FLIPR IC50.
T1 construct: expressed in transfected cells; host or cells: HEK-293
T1 sequence (P51684 1-374): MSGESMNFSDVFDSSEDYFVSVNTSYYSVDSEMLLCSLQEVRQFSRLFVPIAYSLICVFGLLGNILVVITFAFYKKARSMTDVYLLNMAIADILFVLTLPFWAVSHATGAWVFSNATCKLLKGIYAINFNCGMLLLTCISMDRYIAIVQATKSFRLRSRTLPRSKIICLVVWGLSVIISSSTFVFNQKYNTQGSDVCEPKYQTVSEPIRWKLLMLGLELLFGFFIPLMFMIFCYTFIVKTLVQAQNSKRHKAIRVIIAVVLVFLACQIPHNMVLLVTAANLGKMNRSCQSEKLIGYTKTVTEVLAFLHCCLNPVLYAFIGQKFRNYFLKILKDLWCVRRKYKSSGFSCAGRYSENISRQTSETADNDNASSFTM
Type: cell-based
Experimental: FLIPR assay: The bioactivity of compounds is tested in a fluorometric imaging plate reader (FLIPR: Molecular Devices) using engineered HEK-293 cells expressing the human CCR6 (GenBank: AY242126). Frozen cells are plated on Poly-L-Lysine precoated 384-well plates 2 days prior to bioassay in DMEM medium supplemented with 10% FCS and 1% Penicillin-Streptomycin. […] This buffer, but lacking the dye, is also used for washing and compound dilution steps (assay buffer). Cells are washed free of excess dye with a wash-station (Biotek), leaving 40 microliter of assay buffer at the end. Cells were incubated for 15 minutes at room temperature in the dark, before adding compounds. Stock solutions of test compounds are made up at a concentration of 10 mM in DMSO, and serially diluted first in DMSO and then transferred in assay buffer to concentrations required for inhibition dose response curves. After a 45-minute incubation period in assay buffer at room temperature, 10 microliters of each compound dilution are transferred from a compound plate to the plate containing the recombinant cells in the FLIPR instrument according to the manufacturer's instructions. After cells and compounds were preincubated for 30 minutes at room temperature in the dark, 10 microliter agonist CCL20 (Peprotech) at a final concentration of 10 nM is added, again using the FLIPR instrument. Changes in fluorescence are monitored before and after addition of the test compounds and agonist. Emission peak values above base level after CCL20 addition are exported after base line subtraction.
The calculated IC50 values may fluctuate depending on the daily assay performance. Fluctuations of this kind are known to those skilled in the art.

IC50 | SMILES
326 nM | CC(C)c1ccc([C@](O)(c2cncc(N3CC4OCCC4C3=O)c2)C2(C)CN(C)C2)cc1 (mixture of isomers) [Example 210]
88.9 nM | CC(=O)N1CC[C@H](c2nc(-c3cncc([C@@](O)(c4ccc(C(C)C)cc4)C4(C)CN(C)C4)c3)no2)[C@H](C)C1 (mixture of isomers) [Example 478, 1-[cis-4-(3-{5-[(R)-(1,3-Dimethyl-azetidin-3-yl)-hydroxy-(4-isopropyl-phenyl)-methyl]-pyridin-3-yl}-[1,2,4]oxadiazol-5-yl)-3-methyl-piperidin-1-yl]-ethanone]
66.9 nM | CC(C)c1ccc([C@](O)(c2cncc(N3C[C@H](C(C)(C)C)OC3=O)c2)C2(C)CN(C)C2)cc1 (single isomer, unassigned) [Example 167]
93.5 nM | CC(C)c1ccc([C@](O)(c2cncc([C@@H]3CCC(C)(O)C3)c2)C2(C)CN(C)C2)cc1 (single isomer, unassigned) [Example 297]
181 nM | CC(C)c1ccc([C@](O)(c2cncc(-c3noc(C4CCNC(=O)C4)n3)c2)C2(C)CN(C)C2)cc1 (single isomer, unassigned) [Example 515]
104 nM | CC(C)c1ccc([C@](O)(c2cncc(-c3noc(C4CCNC(=O)C4)n3)c2)C2(C)CN(C)C2)cc1 (single isomer, unassigned) [Example 516]
10.1 nM | CC(C)c1ccc([C@](O)(c2cncc(C#CC(C)(O)c3ccnc(C(F)(F)F)n3)c2)C2(C)CN(C)C2)cc1 (single isomer, unassigned) [Example 653]
114 nM | CN1CC(F)(C(O)(c2ccc(OC(F)(F)F)cc2)c2cncc(N3CCCC3)c2)C1 (centres unmarked) [Example 1, (3-Fluoro-1-methyl-azetidin-3-yl)-(5-pyrrolidin-1-yl-pyridin-3-yl)-(4-trifluoromethoxy-phenyl)-methanol]
147 nM | CN1CC(C#N)(C(O)(c2ccc(OC(F)(F)F)cc2)c2cncc(N3CCCC3)c2)C1 (centres unmarked) [Example 2, 3-[Hydroxy-(5-pyrrolidin-1-yl-pyridin-3-yl)-(4-trifluoromethoxy-phenyl)-methyl]-1-methyl-azetidine-3-carbonitrile]
28 nM | CCN1CC(C)([C@](O)(c2ccc(OC(F)(F)F)cc2)c2cncc(N3CCCC3)c2)C1 [Example 3, (R)-(1-Ethyl-3-methyl-azetidin-3-yl)-(5-pyrrolidin-1-yl-pyridin-3-yl)-(4-trifluoromethoxy-phenyl)-methanol]
36.2 nM | CCCN1CC(C)([C@](O)(c2ccc(OC(F)(F)F)cc2)c2cncc(N3CCCC3)c2)C1 [Example 4]
33.3 nM | CC(C)N1CC(C)([C@](O)(c2ccc(OC(F)(F)F)cc2)c2cncc(N3CCCC3)c2)C1 [Example 5]
47.2 nM | CC1([C@](O)(c2ccc(OC(F)(F)F)cc2)c2cncc(N3CCCC3)c2)CN(CC2CC2)C1 [Example 6]
54.3 nM | CC1([C@](O)(c2ccc(OC(F)(F)F)cc2)c2cncc(N3CCCC3)c2)CN(C2CCC2)C1 [Example 7]
110 nM | CC(C)CN1CC(C)([C@](O)(c2ccc(OC(F)(F)F)cc2)c2cncc(N3CCCC3)c2)C1 [Example 8]
74.7 nM | CC1([C@](O)(c2ccc(OC(F)(F)F)cc2)c2cncc(N3CCCC3)c2)CN(C2CC2)C1 [Example 9, (R)-(1-Cyclopropyl-3-methyl-azetidin-3-yl)-(5-pyrrolidin-1-yl-pyridin-3-yl)-(4-trifluoromethoxy-phenyl)-methanol]
64.1 nM | CC1([C@](O)(c2ccc(OC(F)(F)F)cc2)c2cncc(N3CCCC3)c2)CN(CCF)C1 [Example 10, (R)-[1-(2-Fluoro-ethyl)-3-methyl-azetidin-3-yl]-(5-pyrrolidin-1-yl-pyridin-3-yl)-(4-trifluoromethoxy-phenyl)-methanol]
130 nM | CC1([C@](O)(c2ccc(OC(F)(F)F)cc2)c2cncc(N3CCCC3)c2)CN(CC(F)F)C1 [Example 11, (R)-[1-(2,2-Difluoro-ethyl)-3-methyl-azetidin-3-yl]-(5-pyrrolidin-1-yl-pyridin-3-yl)-(4-trifluoromethoxy-phenyl)-methanol]

Further lines, the molecule ahead of its results:

SMILES | IC50
CC(C)c1ccc([C@](O)(c2cncc(-c3noc(C4(C)CC(=O)N(C)C4)n3)c2)C2(C)CN(C)C2)cc1 (single isomer, unassigned) [Example 365] | 147 nM
CC(C)c1ccc([C@](O)(c2cncc(-c3noc(C4(C)CC(=O)N(C)C4)n3)c2)C2(C)CN(C)C2)cc1 (single isomer, unassigned) [Example 366] | 165 nM
Cc1cc(C(C)(O)C#Cc2cncc([C@@](O)(c3ccc(C(C)C)cc3)C3(C)CN(C)C3)c2)nn1C (single isomer, unassigned) [Example 401] | 117 nM
Cc1cc(C(C)(O)C#Cc2cncc([C@@](O)(c3ccc(C(C)C)cc3)C3(C)CN(C)C3)c2)nn1C (single isomer, unassigned) [Example 402] | 88.3 nM
CC(C)c1ccc([C@](O)(c2cncc(C#CC(C)(O)c3ccn(C)n3)c2)C2(C)CN(C)C2)cc1 (single isomer, unassigned) [Example 404] | 164 nM
CC(C)c1ccc([C@](O)(c2cncc(C#CC(C)(O)c3ccn(C)n3)c2)C2(C)CN(C)C2)cc1 (single isomer, unassigned) [Example 405] | 102 nM
CC(C)c1ccc([C@](O)(c2cncc(-c3noc(C4CC(=O)N(C)C4)n3)c2)C2(C)CN(C)C2)cc1 (single isomer, unassigned) [Example 509] | 208 nM
CCN1CC(c2nc(-c3cncc([C@@](O)(c4ccc(C(C)C)cc4)C4(C)CN(C)C4)c3)no2)CC1=O (single isomer, unassigned) [Example 510] | 184 nM
CCN1CC(c2nc(-c3cncc([C@@](O)(c4ccc(C(C)C)cc4)C4(C)CN(C)C4)c3)no2)CC1=O (single isomer, unassigned) [Example 511] | 133 nM
CC(C)c1ccc([C@](O)(c2cncc(-c3noc(C4CC(=O)N(C(C)C)C4)n3)c2)C2(C)CN(C)C2)cc1 (single isomer, unassigned) [Example 512] | 61.1 nM
CC(C)c1ccc([C@](O)(c2cncc(-c3noc(C4CC(=O)N(C(C)C)C4)n3)c2)C2(C)CN(C)C2)cc1 (single isomer, unassigned) [Example 513] | 101 nM
COc1cc(C(C)(O)C#Cc2cncc([C@@](O)(c3ccc(C(C)C)cc3)C3(C)CN(C)C3)c2)ncn1 (single isomer, unassigned) [Example 620] | 55.3 nM
COc1cc(C(C)(O)C#Cc2cncc([C@@](O)(c3ccc(C(C)C)cc3)C3(C)CN(C)C3)c2)ncn1 (single isomer, unassigned) [Example 622] | 105 nM
COc1nccc(C(C)(O)C#Cc2cncc([C@@](O)(c3ccc(C(C)C)cc3)C3(C)CN(C)C3)c2)n1 (single isomer, unassigned) [Example 623] | 44.9 nM
COc1nccc(C(C)(O)C#Cc2cncc([C@@](O)(c3ccc(C(C)C)cc3)C3(C)CN(C)C3)c2)n1 (single isomer, unassigned) [Example 624] | 81.8 nM
Cc1cc(C(C)(O)C#Cc2cncc([C@@](O)(c3ccc(C(C)C)cc3)C3(C)CN(C)C3)c2)nc(C)n1 (single isomer, unassigned) [Example 625] | 107 nM
Cc1cc(C(C)(O)C#Cc2cncc([C@@](O)(c3ccc(C(C)C)cc3)C3(C)CN(C)C3)c2)nc(C)n1 (single isomer, unassigned) [Example 626] | 111 nM
COc1cc(C(C)(O)C#Cc2cncc([C@@](O)(c3ccc(C(C)C)cc3)C3(C)CN(C)C3)c2)nc(OC)n1 (single isomer, unassigned) [Example 627] | 11.5 nM
COc1cc(C(C)(O)C#Cc2cncc([C@@](O)(c3ccc(C(C)C)cc3)C3(C)CN(C)C3)c2)nc(OC)n1 (single isomer, unassigned) [Example 628] | 20.2 nM
COc1nc(C)cc(C(C)(O)C#Cc2cncc([C@@](O)(c3ccc(C(C)C)cc3)C3(C)CN(C)C3)c2)n1 (single isomer, unassigned) [Example 629] | 60.9 nM
COc1cc(C(C)(O)C#Cc2cncc([C@@](O)(c3ccc(C(C)C)cc3)C3(C)CN(C)C3)c2)nc(C)n1 (single isomer, unassigned) [Example 630] | 61.1 nM
COc1cc(C(C)(O)C#Cc2cncc([C@@](O)(c3ccc(C(C)C)cc3)C3(C)CN(C)C3)c2)nc(C)n1 (single isomer, unassigned) [Example 631] | 79.5 nM
CC(C)c1ccc([C@](O)(c2cncc(C#CC(C)(O)c3ccnc(C(F)(F)F)n3)c2)C2(C)CN(C)C2)cc1 (single isomer, unassigned) [Example 652] | 10.9 nM
